Consider four compounds from US4652554A, “Nitro-substituted 1-β-D-arabinofuranosylcytosines” (St. Jude Children's Research Hospital, priority 1982, dated 1987).

The test system of data set [1] is murine leukemia L1210. Briefly: In vivo L1210 leukemia cell number in peritoneal cavity 24 h after single i.p. dose. To be noted: 720 mg/kg i.p., 24 hours after treatment (day 6). Also on record: species or system murine (B6D2F1/J female mice). As for the experimental part:
1-(2-O-Nitro-β-D-arabinofuranosyl)cytosine (nitrara-C) is a powerful anti-neoplastic agent particularly against the leukemias.
B6D2F1 /J female mice weighing ~20 g. were inoculated intraperitoneally with 1×10^5 cells of the murine leukemia, L1210. Five days later, the leukemia cells were washed from the peritoneal cavities of untreated mice, and baseline counts were made. Concomitantly, other groups of mice were treated i.p. with either ara-C.HCl or nitrara-C.HCl. Each drug was administered at a level of 720 mg/kg in a volume of 0.01 ml/gm of mouse weight. Twenty-four hours later, on day 6, cells were washed from the peritoneal cavities of both treated and NaCl-injected mice, and cell numbers were compared.
Five days after the intraperitoneal inoculation of B6D2F1 /J mice with one hundred thousand cells of leukemia L1210, an average of 255 million cells were recovered from the abdominal compartments of untreated mice. Twenty-four hours later, this value had increased by 52 percent for NaCl-injected mice, but had declined by 90 percent for animals that received 720 mg/kg of nitrara-C and 77% for ara-C treated group.

The subject of data set [2] is CCRF-CEM (T-cells). Briefly: Cytotoxicity (cell growth inhibition), CCRF-CEM. To be noted: Homo sapiens, read-out: IC50 (molar conc. for 50% inhib. of cell growth). It counts as cell-based.
Data set [3] deals with MOLT-4 (T-cells). Briefly: Cytotoxicity (cell growth inhibition), MOLT-4. It counts as cell-based. To be noted: Homo sapiens, read-out: IC50 (molar conc. for 50% inhib. of cell growth).
Data set [4] concerns RPMI-6410 (B-cells). As to the kind of experiment: Cytotoxicity (cell growth inhibition), RPMI-6410. It counts as cell-based. Particulars: Homo sapiens, read-out: IC50 (molar conc. for 50% inhib. of cell growth).
Data set [5] concerns CCFR-CEM/ara-C (mutant). Briefly: Cytotoxicity (cell growth inhibition), ara-C resistant mutant. It counts as cell-based. To be noted: Homo sapiens, read-out: IC50 (molar conc. for 50% inhib. of cell growth).
For data set [6], the target named is Cytidine deaminase (Mus musculus, UniProt P56389). Briefly: Substrate specificity of cytidine deaminase (spectrophotometric deamination assay). It counts as biochemical. To be noted: for Relative initial rate of deamination: 2.5×10^-4 M substrate, 1.3 mg enzyme protein, pH 7.0, 37° C., cytidine = 100. The procedure:
Thus, mouse kidney acetone powder (3 g. obtained from Sigma Chemical Co., St. Louis, Mo.) was extracted at 55°-60° C. for 5 minutes with phosphate buffer (pH 8.0, 0.05M). The extract was filtered through four layers of guaze bandage, and the remaining colloidal materials were removed by centrifugation at 20,000 g. for 10 minutes. The supernatant was then filtered through a Nalgene filter unit (0.45 μm grid membrane) to give a clear yellowish filtrate that was adjusted to 40% saturation by the addition of solid ammonium sulfate (24 g/100 ml. of filtrate) with stirring at room temperature, and stirring was continued for 30 minutes. After removal of the precipitate by centrifugation (20,000 g. for 30 minutes), the active supernatant was adjusted to 70% saturation by further addition of ammonium sulfate (24 g/100 ml of supernatant). The resulting precipitate, recovered by centrifugation (20,000 g. for 30 minutes), was dissolved in 4 ml. of phosphate buffer (pH 7.0, 0.05M) and dialyzed twice against 2 liters of the same buffer.
Protein content was determined by Bio-Rad Protein Assay. […] All reaction mixtures contained 2.5×10^-4 M of substrate and 1.3 mg of enzyme protein in a final volume of 1.0 ml. of phosphate buffer (pH 7.0, 0.05M).

The test system of data set [7] is human leukemia cells. As to the kind of experiment: Cytotoxicity to human leukemia cells in culture, summary. As for the experimental part: Experiments were also carried out to determine the growth potential of cultured human lymphoblasts in the presence of nitrara-C in tissue culture.
Data set [8] is described as follows: Effect of cytidine deaminase on cytotoxicity for CCRF-CEM cells. Particulars: cytidine deaminase.
Data set [9] has as its system CCRF-CEM cells. The data set is described as above. Particulars: Homo sapiens, CCRF-CEM.
Data set [10] concerns experimental tumors in animals. To be noted: cited from earlier work.
Data set [11] relates to L1210. Briefly: Life-span of mice inoculated i.p. with L1210 (3×10^6 cells), treatment started 24 h after implantation. It counts as in vivo, murine (B6D2F1/J female mice). Particulars: for indefinite cures (60 day survivors): 5 mice per group; for extension of lifespan: 2000 mg/kg. As for the experimental part: In a similar further study, B6D2F1 /J female mice were inoculated i.p. with 3×10^6 cells of L1210. Treatment was started 24 hours after tumor implantation. Nitrara-C hydrochloride treatment regimens were as follows:
Injections of 0.9 percent saline were used as a control.
On regimen 1, statistically significant increase in life-span was obtained with dosages higher than 34 mg/kg.

Where [12] appears, read: human leukemia cells in culture.

Like-named read-outs stand apart in the source and are kept apart here. A value given as a limit tells only on which side of the number the result lay.

For the compound `Nc1ccn([C@@H]2O[C@H](CO)[C@@H](O)[C@@H]2O[N+](=O)[O-])c(=O)n1` [Nitrara-C, 1-(2-O-nitro-β-D-arabinofuranosyl)cytosine], the “decline in number of L1210 cells recovered from abdominal compartment” value in data set [1] came to 90%. Further, the IC50 came to 0.6 µM in data set [2] (CCRF-CEM (T-cells), 48 hours); 0.4 µM in [3] (MOLT-4 (T-cells), 48 hours); 6 µM in data set [4] (RPMI-6410 (B-cells), 48 hours); 1000 µM in data set [5] (CCFR-CEM/ara-C (mutant), deficient in deoxycytidine kinase, 48 hours); 0.6 µM in data set [9] (read-out: IC50 (molar conc. for 50% inhib. of cell growth), with cytidine deaminase); 0.6 µM in data set [9] (read-out: IC50 (molar conc. for 50% inhib. of cell growth), without cytidine deaminase). Also, the “deamination by cytidine deaminase (in words)” value in data set [6] is on record as “not deaminated by cytidine deaminase”. In data set [6], the “Relative initial rate of deamination” value is listed as less than 1. Further, in [7], the “dependence of cytotoxicity on phosphorylation (in words)” value is recorded as “cytotoxicity depends on phosphorylation”. For the same compound, the “activity compared to ara-C (in words)” value in data set [7] (setting [12]) is recorded as “compares favorably to that of ara-C”. Besides, in [7] (setting [12]), the “cytotoxicity (in words)” value was “highly cytotoxic to various human leukemia cells in culture”. In [8], this compound registered a metabolised of less than 1%.
`Nc1ccn([C@H]2C[C@H](O)[C@@H](CO)O2)c(=O)n1` [2'-Deoxycytidine, reference compound]: in [6], the “Relative initial rate of deamination” value was 39.
In the case of `Nc1ccn([C@@H]2O[C@H](CO)[C@@H](O)[C@@H]2O)c(=O)n1` [Ara-C, 1-β-D-arabinofuranosylcytosine], the “decline in number of L1210 cells recovered from abdominal compartment” value in data set [1] is reported as 77%. For the same compound, the IC50 came out at 0.02 µM in [2] (CCRF-CEM, 48 h); 0.01 µM in data set [3] (MOLT-4, 48 h); 0.06 µM in data set [4] (RPMI 6410, 48 h); 100 µM in [5] (48 h). Moreover, in [7], the “dependence of cytotoxicity on phosphorylation (in words)” value is recorded as “cytotoxicity depends on phosphorylation”. Moreover, the “activity in experimental tumors (in words)” value in [10] was “active in several experimental tumors in animals”.
Take `Cl.Nc1ccn([C@@H]2O[C@H](CO)[C@@H](O)[C@@H]2O[N+](=O)[O-])c(=O)n1` [Nitrara-C hydrochloride, 1-(2-O-Nitro-β-D-arabinofuranosyl)cytosine hydrochloride]: the minimal effective dose in data set [11] (Mus musculus, L1210, ip, 168 h, regimen 1 (daily for 7 days), read-out: dosages giving statistically significant increase in life-span) is more than 34 mg/kg. In addition, the toxic deaths result in data set [11] (any of the above regimens at the highest dosages) was “Toxic deaths were not seen”. The compound further gave an extension of life-span in data set [11] (regimen 1 (daily for 7 days), 208 mg/kg) of 162%. Moreover, the “indefinite cures (60 day survivors)” value in data set [11] (regimen 1 (daily for 7 days), 259 mg/kg) was determined as 3 survivors; in [11] (regimen 1 (daily for 7 days), 346 mg/kg), 1 survivor; in data set [11] (regimen 1 (daily for 7 days), 432 mg/kg), 2 survivors; in data set [11] (regimen 1 (daily for 7 days), 720 mg/kg), 1 survivor. The extension of lifespan in data set [11] (regimen 2 (day 1 only)) came out at 57%; in data set [11] (regimen 3 (days 1 and 4 only)) it was 120%; in data set [11] (regimen 4 (days 1, 4 and 7)), 197%.

The term IC50 denotes the midpoint of a concentration-inhibition curve.
